Experimental data taken from patent US10023565B2, “N,N′ substituted piperidinamine compounds, and preparation method and usage thereof” (Institute of Pharmacology and Toxicology Academy of …, priority 2013, dated 2018).

Tests used:
BT/Lap^R1.0 = assay: Antitumor bioactivity evaluation, breast cancer cells (ATPlite); type: cell-based, human; conditions: Homo sapiens; test sample 5 μM, 72 hours; read-out: Inhibitory Rate % BT/Lap^R1.0
Procedure, shortened: (§1)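 5000 cells/well, 24 h adhesion; cpd 5 μM final ± lapatinib 1 μM final; 72 h, 37 °C; ATPlite luminescence; survival % = sample RLU/control RLU ×100; 5 replicate wells.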

Hsp70 = biological target: T1, Hsp70 (Homo sapiens, UniProt P0DMV8); assay: Measurement of affinity between compounds and Hsp70 (SPR, BIACORE T100); type: binding; conditions: for Kd: steady state model, 25° C., read-out: KD (binding constant between the compounds and Hsp70)
T1 construct: purchased Enzo Life Sciences ADI-ESP-550-D
T1 sequence (P0DMV8 whole entry): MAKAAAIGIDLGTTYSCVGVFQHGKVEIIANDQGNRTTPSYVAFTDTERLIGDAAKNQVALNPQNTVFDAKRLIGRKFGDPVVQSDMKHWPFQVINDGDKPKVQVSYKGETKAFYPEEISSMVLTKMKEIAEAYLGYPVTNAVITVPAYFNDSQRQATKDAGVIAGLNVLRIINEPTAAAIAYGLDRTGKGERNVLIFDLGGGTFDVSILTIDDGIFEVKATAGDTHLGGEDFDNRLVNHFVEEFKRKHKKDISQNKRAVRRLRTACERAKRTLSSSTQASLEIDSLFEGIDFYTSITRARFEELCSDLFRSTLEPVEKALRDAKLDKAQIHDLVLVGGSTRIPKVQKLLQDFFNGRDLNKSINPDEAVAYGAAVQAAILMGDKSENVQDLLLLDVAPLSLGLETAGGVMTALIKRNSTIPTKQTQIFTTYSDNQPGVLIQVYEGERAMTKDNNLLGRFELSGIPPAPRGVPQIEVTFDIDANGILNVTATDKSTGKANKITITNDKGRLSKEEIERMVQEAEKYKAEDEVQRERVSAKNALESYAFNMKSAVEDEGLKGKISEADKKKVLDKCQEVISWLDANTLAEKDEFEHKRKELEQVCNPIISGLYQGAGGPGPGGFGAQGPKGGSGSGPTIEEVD
Protocol: Instrument for measuring the affinity between Example compounds and Hsp70 is BIACORE T100 Biomolecular Interaction Analysis (GE, USA), and the positive control drug is VER-155008 that is well-recognized as Hsp70 inhibitor now, and, on the basis of the measured results, according to binding characteristics between the compounds and protein, the binding constant (equilibrium dissociation constant KD) between drugs and protein is calculated by selecting steady state model with the formula: Conc*Rmax/[conc+KD]+offset.
1. Instrument: BIACORE T100 Biomolecular Interaction Analysis (GE, USA)
2. Reagents: PBS Buffer (×10), P20, CM5 chip (GE, USA), Hsp70 (human, ADI-ESP-550-D), manufactured by Enzo Life Sciences.
30 mM mother liquor of the compound was formulated with DMSO, which was diluted to 2 mM application solution with DMSO before use. 5 μl of the application solution was taken and diluted with 95 μl 1.05×PBS to 100 μM, and then diluted in turn with PBS containing 5% DMSO to […]. PBS containing 5% DMSO was used as solvent control.
Hsp70 protein was diluted with 10 mmol/L sodium acetate buffer solution (pH 5.0) to 30 μg/ml, and coupled directly on a hydrophilic carboxylmethyl dextran matrix sensor chip M5 through normalized primary amine coupling reaction, RU=11209, and then the chip was balanced for 1-2 h with PBS Buffer at […].
At a flow rate of […], with PBS containing 5% DMSO as mobile phase, at 25° C., the compound was introduced in the sequence of 0.003, 0.01, 0.03, 0.1, 0.3, 1, 3 and 10 μM, with binding time of 90 seconds, and dissociation time of 120 seconds.
According to binding characteristics between the compounds and protein, the binding constant (equilibrium dissociation constant KD) between drugs and protein was calculated by selecting steady state model with the formula: Conc*Rmax/[conc+KD]+offset.

BT474 = assay: Antitumor bioactivity evaluation, breast cancer cells (ATPlite); type: cell-based; conditions: Homo sapiens, BT-474; test sample 5 μM, 72 hours; read-out: Inhibitory Rate % BT474
Procedure, shortened: as §1

MDA-MB-361 = assay: as above; type: cell-based; conditions: Homo sapiens, test sample 5 μM, 72 hours, read-out: Inhibitory Rate % MDA-MB-361
Procedure, shortened: as §1

MDA-MB-453 = assay: as above; type: cell-based; conditions: Homo sapiens, test sample 5 μM, 72 hours, read-out: Inhibitory Rate % MDA-MB-453
Procedure, shortened: as §1

SK/Lap^R1.0 = assay: as above; type: cell-based; conditions: Homo sapiens; test sample 5 μM, 72 hours; read-out: Inhibitory Rate % SKLap^R1.0
Procedure, shortened: as §1

SK-BR3 = assay: as above; type: cell-based; conditions: Homo sapiens, SK-BR-3; test sample 5 μM, 72 hours; read-out: Inhibitory Rate % SK-BR3
Procedure, shortened: as §1

SMILES | inhibition at 5 µM (BT/Lap^R1.0) | KD compared with positive control drug VER-155008 (Hsp70) | Kd (Hsp70) | inhibition at 5 µM (BT474) | inhibition at 5 µM (MDA-MB-361) | inhibition at 5 µM (MDA-MB-453) | inhibition at 5 µM (SK/Lap^R1.0) | inhibition at 5 µM (SK-BR3)
CN(Cc1ccccc1C#N)C1CCN(Cc2cnc(Cl)s2)CC1 [Example 14, N-methyl-N-(2-cyanobenzyl)-N-{1-[(2-chlorothiazol-5-yl)methyl]piperidin-4-yl}amine] | 4% | KD values equivalent to that of the positive control drug VER-155008 | 245 nM | -4.1% | -8.5% | 8.2% | 4.2% | 7.3%
CSc1nccc(N2CCC(N(C)Cc3ccc(F)cc3)CC2)n1 [Example 35, N-methyl-N-(4-fluorobenzyl)-N-[1-(2-methylthiopyrimidin-4-yl)piperidin-4-yl]amine] | 44.7% | KD values equivalent to that of the positive control drug VER-155008 | 204 nM | 40.5% | 46% | 82.3% | 30.9% | 31.5%
COc1nccc(N2CCC(N(C)Cc3ccc(F)cc3)CC2)n1 [Example 57, N-methyl-N-(4-fluorobenzyl)-N-[1-(2-methoxypyrimidin-4-yl)piperidin-4-yl]amine] | 14.6% | KD values equivalent to that of the positive control drug VER-155008 | 281 nM | 12.5% | 12.8% | 40.4% | 9% | 14.4%
